Activity calls are given as the source filed them. How the calls were made is not given here. A value given as a limit tells only on which side of the number the result lay.

Among the data in PubChem BioAssay AID2749 (The Scripps Research Institute Molecular Screening Center, 2010) are IC50 values, retold here.

The test system of the experiment is IEC-6 rat intestinal epithelial cells, cytotoxicity, luminescence. Kind of experiment: cytotoxicity in IEC-6 cells, late-stage follow-up, cytotoxicity control for KLF5 inhibitor project, cell-based, luminescence, dose response (AID 2749).

For `Cc1cc(C(=O)CN2C(=O)c3ccccc3S2(=O)=O)c(C)n1CC1CCCO1` (centres undefined), the IC50 – broadly, the point on the concentration scale where inhibition reaches its midpoint – is > 39.8 µM (inactive).
Then `COC(=O)c1ccc2nc(Nc3nc4ccc(F)cc4s3)sc2c1`, with > 39.8 µM (inactive); and `CN1CCN(c2ccc(-c3ccc4ccccc4n3)cc2)CC1`, with 16.2 µM (inactive); and `c1ccc(-c2ccc(-c3nc(-c4ccccn4)no3)cc2)cc1`, with 14.2 µM (inactive).
In the case of `COc1ccc(OCc2cccc(C(=O)Nn3cc([N+](=O)[O-])cn3)c2)cc1`, the IC50 was > 39.8 µM (inactive).
The figure for `Cc1ccc2nc(NC(=O)CCCc3nc4ccccc4s3)sc2c1` is > 39.8 µM (inactive).
As for `CN(C(=O)COC(=O)/C=C/c1cccc([N+](=O)[O-])c1)C1CCS(=O)(=O)C1` (centres undefined), the IC50 is 34.8 µM (inactive).
Then `CCOC(=O)c1sc(NC(=O)c2cc3c(s2)CCC(C)C3)nc1C` (centres undefined), with > 39.8 µM (inactive); and `CCCc1ccc(C(=O)O/N=C(\N)c2ccccn2)cc1`, with > 39.8 µM (inactive); and `CCOC(=O)c1sc(NC(=O)c2ccc3ncsc3c2)nc1C`, with > 39.8 µM (inactive).
In the case of `CC(C)(C)c1ccc(C(=O)O/N=C(\N)c2ccccn2)cc1`, the IC50 was 25.5 µM (inactive).
In the case of `O=C(NCCc1ccccc1)c1ccc2c(c1)OCCCO2`, the IC50 is > 39.8 µM (inactive).
For `CCCc1ccc(-c2ccc(/C=C/C(=O)O)cc2)nc1`, the IC50 was > 39.8 µM (inactive).
The figure for `COc1ccc(C(=O)Nc2ccccc2C(=O)NN=Cc2ccc(O)c(OC)c2)cc1` is > 39.8 µM (inactive); for `CC(C)(C)C(=O)Nc1cc2nn(-c3ccccc3)nc2cc1Cl` it is > 39.8 µM (inactive); for `CC(C)(C)c1ccc(-c2noc(CCC(=O)Nc3cccnc3)n2)cc1` it is > 39.8 µM (inactive).
The figure for `CCOC(=O)c1sc(NC(=O)c2cc3ccccc3o2)nc1C` is > 39.8 µM (inactive); for `COc1cccc(C=NNc2ccc(C(=O)O)cc2)c1O` it is > 39.8 µM (inactive).
In the case of `O=C(NCCc1ccccc1F)c1ccc2c(c1)OCCO2`, the IC50 was > 39.8 µM (inactive).
